{
  "source": "patent US7351399B2",
  "about": "“Prodrugs for phosphorus-containing compounds” (Metabasis Therapeutics, Inc., priority 1998, dated 2008)",
  "key": {"rat embryos in culture": {"system": "rat embryos in culture", "settings": "cited from earlier work"}, "[1]": {"assay": "Chemical stability in isotonic saline and phosphate buffer (Example A)", "type": "physicochemical", "settings": "room temperature", "experimental": "Methods: Aliquots of a 10 μg/mL solution of 30.1 in isotonic saline and in 100 mM potassium phosphate buffers at pH 3, 7, and 9 were sampled after 1, 2, 5, and 7 days of incubation at room temperature and analyzed by HPLC. A Beckman Ultrasphere C8 column (4.6×150 mm) was employed and eluted with a gradient from 0.1% v/v trifluoroacetic acid to 80% methanol at a flow rate of 1.0 mL/min. Detection was at 254 nm. Using these conditions, the four isomers of 30.1 were readily separated and quantified. 1.3 was incubated at 100 μM in phosphate buffer at pH 7.4 and analyzed by HPLC as described in Example I following 1 hour of incubation at room temperature.\nThus, prodrugs of the invention are stable under a broad pH range."}, "[2]": {"assay": "Oral bioavailability from liver ara-ATP area under the curve (Example M)", "type": "in vivo, rat", "settings": "for oral bioavailability: hepatic ara-ATP AUC, fasted rats", "experimental": "(§1) The oral bioavailability of prodrugs of a variety of phosphonic acid FBPase inhibitors was estimated by a urinary excretion method in rat.\nMethods: Fasted rats were dosed orally and intravenously with 30.1 at 3 and 10 mg/kg. Liver samples were obtained, processed, and analyzed for ara-ATP content as described in Example P.\n[“Adenine Arabinoside: An Antiviral Agent” (1975) D. Pavan-Langston, Editor, Raven Press Publishers, New York]."}, "[3]": {"assay": "Liver ara-ATP and ara-hypoxanthine generation after intravenous administration (Example O)", "type": "in vivo, rat", "settings": "for liver ara-ATP area under the curve relative to 10 mg/kg equivalent dose of ara-AMP: over 8 hours; for ara-hypoxanthine (araH) in plasma / blood: 30.1 10 and 3 mg/kg, ara-AMP 10 mg/kg; for dose excreted in the form of ara-hypoxanthine in urine: ara-AMP 10 mg/kg equivalent dose", "experimental": "The temporal profile of ara-hypoxanthine and ara-ATP generation following intravenous administration of 30.1 and free ara-AMP was compared in the rat. Method: 30.1 and ara-AMP (Sigma) were administered to normal, fasted rats intravenously (in saline) via tail vein catheters. At appropriate time points following drug a administration, animals were lightly anesthetized with halothane. The peritoneal cavity was then opened and a blood sample was obtained from the abdominal vena cava and the liver freeze-clamped and excised. The blood samples were heparinized and plasma was prepared. Plasma samples (100 μL) were mixed with 4 N perchloric acid (40 μL), vortexed, and then clarified by centrifugation. […] The eluent was monitored by UV absorbance at 254 nm. Livers were immediately homogenized in 3 volumes of 10% perchloric acid (w/w), and the extracts clarified by centrifugation at 2500×g (5 minutes). The resulting supernatants were removed and neutralized with 0.3 volumes of 3M KOH/3M KHCO3. […] Renal excretion of araH following i.v. administration of 30.1 or ara-AMP was determined as described in Example Q."}, "[4]": {"assay": "Tissue distribution: activation in tissue homogenates (Example T)", "type": "in vitro ADME, rat", "settings": "100 μM; liver cytosol without microsomes", "experimental": "30.1 is tested for activation in homogenates from various tissues to assess the specificity of liver activation.\nMethods: Rats are anaesthetized under halothane and tissues including liver, kidney, brain, heart, stomach, spleen, muscle, lung, and testis are excised and frozen in liquid nitrogen. Tissues are then homogenized in 1 to 3 volumes of 50 mM Tris/HCl, 154 mM KCl, 1 mM EGTA pH 7.4. The homogenate is centrifuged at 10,000 rpm and 4° C. for 30 minutes and the supernatant recovered. Liver cytosol is prepared by centrifuging the liver crude extract for 1 hour at 40,000 rpm and 4° C. Reaction mixtures consist of 50 mM KH2PO4 pH 7.4, 13 mM glucose-6-phosphate, 2 mM NADP^+, 10 units of glucose-6-phosphate dehydrogenase, 100 μM 30.1 and tissue homogenate at a protein concentration of 8.5 mg/ml. Reactions are incubated at 37° C. Aliquots are taken after 0 and 1 hour of incubation, and extracted with 60% methanol. The methanolic extracts are centrifuged at 14,000 rpm, and filtered prior to analysis by HPLC. The samples are loaded onto a YMC C8 column equilibrated with 0.1% TFA and eluted with a methanol gradient to 80%. Ihe activation of 30.1 to ara-AMP is monitored at […]\nResults. […] Results of this nature indicate liver specific activation of 30.1."}, "normal C57 mice": {"system": "normal C57 mice", "settings": "for araATP, nmoles/g liver: day 22, 3 hours after final dosing", "quoted_text": "Death and other obvious signs of toxicity such as weight loss, tremors, ruffling fur, hunching, prostration, diarrhea, lethargy, and hyperactivity were monitored. On day 22, 3 hours following the final dosing, mice were sacrificed and livers were removed and homogenized in 3 volumes (to liver weight) of 10% perchloric acid."}, "[5]": {"assay": "Stability in plasma (Example C)", "quoted_text": "Methods: Compounds were incubated in plasma at 37° C., and aliqouts removed at appropriate time points over the course of 5-8 hours. The aliquots were extracted with 1.5 volumes of methanol and clarified by centrifugation. Supernatants were then evaporated to dryness and the residues reconstituted with 100 μL of isoionic saline and then analyzed by reverse phase HPLC."}, "[6]": {"assay": "Oral bioavailability by urinary excretion method (Example M)", "type": "in vivo", "settings": "oral gavage 20 or 40 mg/kg parent equivalents; 24 h urine vs i.v. parent ~10 mg/kg; rat", "experimental": "as §1\nProdrugs of FBPase inhibitors were dissolved in 10% ethanol/90% polyethylene glycol (mw 400) and administered by oral gavage at doses of 20 or 40 mg/kg parent compound equivalents to 6-hour fasted, Sprague Dawley rats (220-240 g). The rats were subsequently placed in metabolic cages and urine was collected for 24 hours. The quantity of parent compound excreted into urine was determined by HPLC analysis. An ODS column eluted with a gradient from potassium phosphate buffer, pH 5.5 to acetonitrile was employed for these measurements. Detection was at 310-325 nm. […] Parent compounds were typically dissolved in dimethyl sulfoxide, and administered via the tail vein in animals that were briefly anesthetized with halothane.\nResults for the FBPase inhibitor prodrugs were as follows"}, "[7]": {"assay": "Activation by rat liver microsomes (Example D)", "settings": "100 μM; 0-2.5 mg/ml microsomal protein; 37° C.; with/without NADP+", "quoted_text": "Methods: The microsomal fraction was prepared from fresh, saline-perfused rat liver. Liver tissue was homogenized in three volumes (w/v) of 0.2 M KH2PO4 buffer pH 7.5, containing 2 mM MgCl2 and 1 mM EGTA. The homogenate was centrifuged at 10,000 g for 1 hour and the supernatant recovered. The supernatant fraction was then recentrifuged at 100,000 g to pellet the microsomal fraction. The pellet was resuspended in homogenization buffer and recentrifuged. This process was repeated twice to ensure complete removal of cytosolic enzyme activities. After the last centrifugation, the microsomal pellet was resuspended in homogenization buffer at a final protein concentration of about 14 mg/ml.\nFor 7.1, reaction mixtures (0.5 ml) consisted of 0.2 M KH2PO4 pH 7.5, 13 mM glucose-6-phosphate, 2.2 mM NADP^+, 1 unit of glucose-6-phosphate dehydrogenase, 0-2.5 mg/ml microsomal protein and 100 μM 7.1. Reactions were carried out at 37° C. Aliquots were removed from the reaction mixtures at appropriate time points, and extracted with 60% methanol.\nReactions are monitored spectrophotometrically at 340 nm. A decrease in absorbance is indicative of cofactor depletion and thus of the enzymatic oxidation of prodrug to parent compound."}, "[8]": {"settings": "intravenous; human patients; cited from earlier work"}, "isolated rat hepatocytes": {"system": "isolated rat hepatocytes", "assay": "Generation of PMEApp in isolated rat hepatocytes (Example V)", "type": "cell-based", "settings": "Dose 250 μM; 4 h; triplicate", "experimental": "Methods: Hepatocytes were prepared from fed rats and incubated as described in Example I. Test compounds were prepared in DMSO and-diluted to 250 μM in the cell suspensions. Reactions were performed in triplicate. After 4 hours of incubation, aliquots of the suspension were removed and processed as described in Example I. Quantitation of PMEApp was performed by anion exchange HPLC also as described in Example I."}, "[9]": {"assay": "Hepatic PMEA-diphosphate generation following oral administration (Example W)", "type": "in vivo, rat", "settings": "oral gavage 30 mg/kg PMEA equiv.; 4 h; fasted rats; n = 3", "experimental": "Four hours post administration, liver samples were obtained and processed as described in Example […] was analyzed by anion exchange HPLC as described for […] in Example O."}},
  "note": "“Also recorded” adds a separate entry of the source. Like-named read-outs stand apart in the source and are kept apart here.",
  "data": [
    {"smiles": "C=CC(=O)c1ccccc1", "note": "[Phenyl vinyl ketone]", "values": [
      {"measurement": "teratogenic activity", "setting": "rat embryos in culture", "result": "lacks teratogenic activity"}
    ]},
    {"smiles": "Nc1ncnc2c1ncn2[C@@H]1O[C@H](COP2(=O)OCCC(c3ccncc3)O2)[C@@H](O)[C@@H]1O", "note": "(stereo partly drawn) [Compound 30.1, Adenine-9-beta-D-arabinofuranoside-5′-[1-(4-pyridyl)-1,3-propyl]monophosphate]", "values": [
      {"measurement": "decomposition in saline or buffer", "setting": "[1]; 10 μg/mL, isotonic saline and 100 mM potassium phosphate buffers pH 3, 7, 9, 7 days, HPLC", "result": "No decomposition"},
      {"measurement": "period for which stable", "setting": "[1]; isotonic saline / 100 mM potassium phosphate buffer pH 3, 7, 9", "result": "at least seven"},
      {"measurement": "oral bioavailability", "setting": "[2]; 3 mg/kg oral vs intravenous", "result": 13.7, "unit": "%"},
      {"measurement": "oral bioavailability", "setting": "[2]; 10 mg/kg oral vs intravenous", "result": 17.4, "unit": "%"},
      {"measurement": "production of the metabolite araH after oral administration", "setting": "[2]; oral administration", "result": "without production of the metabolite araH"},
      {"measurement": "liver ara-ATP area under the curve relative to 10 mg/kg equivalent dose of ara-AMP", "setting": "[3]; 30.1 3 mg/kg i.v., rat", "result": 2.1, "unit": "times higher"},
      {"measurement": "liver ara-ATP area under the curve relative to 10 mg/kg equivalent dose of ara-AMP", "setting": "[3]; 30.1 10 mg/kg i.v., rat", "result": 5.2, "unit": "times higher"},
      {"measurement": "liver levels of araATP relative to araAMP (FIG. 1A)", "setting": "[3]; i.v., 30.1 10 and 3 mg/kg vs araAMP 10 mg/kg", "result": "Significantly higher"},
      {"measurement": "ara-hypoxanthine (araH) in plasma / blood", "setting": "[3]; i.v., rat", "result": "not detected; also recorded: no ara-hypoxanthine; also recorded: failed to produce detectable amounts; also recorded: no araH (a toxic metabolite) was detected"},
      {"measurement": "dose excreted in the form of ara-hypoxanthine in urine", "setting": "[3]; i.v., rat", "result": "Nor was ara-hypoxanthine detected in urine"},
      {"measurement": "liver (araATP)/urine (araH) ratio in comparison with araAMP", "setting": "[3]; rat", "result": "substantial shift"},
      {"measurement": "activation to ara-AMP in liver cytosol", "setting": "[4]", "result": "does not result in activation"},
      {"measurement": "safety of administration", "setting": "normal C57 mice; 22 day period, doses up to 200 mg/kg/d", "result": "safely administered"},
      {"measurement": "araATP, nmoles/g liver", "setting": "normal C57 mice; Dose 20 mg/kg/d", "result": "6.6 ± 1.6", "unit": "nmoles/g liver"},
      {"measurement": "araATP, nmoles/g liver", "setting": "normal C57 mice; Dose 200 mg/kg/d", "result": "23.1 ± 9", "unit": "nmoles/g liver"},
      {"measurement": "metabolism / degradation in fresh rat plasma", "setting": "[5]; 37° C., 5-8 hours, HPLC", "result": "not degraded; also recorded: no evidence of metabolism"},
      {"measurement": "deamination by adenosine deaminase found in rat plasma", "setting": "[5]; rat plasma", "result": "not susceptible"}
    ]},
    {"smiles": "CC(C)Cn1c(-c2ccc(P3(=O)OCC(CO)CO3)o2)nc2ccc(Cl)cc21", "note": "(centres unmarked) [Compound 7.1, 6-Chloro-1-isobutyl-2-{5-[2′-(hydroxymethyl)-propan-1′,3′-yl]phosphono-2-furanyl}benzimidazole]", "values": [
      {"measurement": "% OBAV Prodrug", "setting": "[6]", "result": 10.9, "unit": "%"},
      {"measurement": "conversion to parent compound", "setting": "[7]", "result": "converted to parent compound in the presence, but not in the absence of, NADP^+"}
    ]},
    {"smiles": "Nc1ncnc2c1ncn2[C@@H]1O[C@H](COP(=O)(O)O)[C@@H](O)[C@@H]1O", "note": "[araAMP, reference compound]", "values": [
      {"measurement": "ara-hypoxanthine (araH) in plasma / blood", "setting": "[3]; i.v., rat, listed as AraAMP", "result": "rapidly and nearly completely converted to araH"},
      {"measurement": "ara-hypoxanthine (araH) in plasma / blood", "setting": "[3]; i.v., rat, listed as ara-AMP", "result": "μmolar levels"},
      {"measurement": "dose excreted in the form of ara-hypoxanthine in urine", "setting": "[3]; i.v., rat", "result": 19.2, "unit": "%"},
      {"measurement": "plasma half-life relative to 30.1", "setting": "[3]; rat, compound not detectable in plasma", "result": "considerably shorter"},
      {"measurement": "araATP, nmoles/g liver", "setting": "normal C57 mice; Dose 20 mg/kg/d", "result": "2.5 ± 0.2", "unit": "nmoles/g liver"},
      {"measurement": "araATP, nmoles/g liver", "setting": "normal C57 mice; Dose 200 mg/kg/d", "result": "19.1 ± 4.0", "unit": "nmoles/g liver"},
      {"measurement": "ara-AMP in plasma", "setting": "[8]", "result": "not detected in plasma"}
    ]},
    {"smiles": "Nc1ncnc2c1ncn2CCOCP1(=O)OCCC(c2cccc(Cl)c2)O1", "note": "(centres unmarked) [Compound 31.1, 9-{2-[1-(3-Chlorophenyl)1,3-propylphosphonomethoxy]ethyl}adenine]", "values": [
      {"measurement": "PMEApp", "setting": "isolated rat hepatocytes", "result": "52.8 ± 1.5", "unit": "nmol/g"},
      {"measurement": "Hepatic PMEApp (nmoles/g/tissue)", "setting": "[9]", "result": "11.1 ± 1.8", "unit": "nmoles/g/tissue"}
    ]}
  ]
}
